Converted amounts (≈) assume the structure as drawn. The source made the active and inactive calls. No cut-off for these calls is given here.
What was measured:
[1] = system: Candida albicans; assay: microbe, parasite or virus in culture; assay type: functional, organism-based; conditions: SC5314, 48 h
Description: Antifungal activity against Candida albicans SC5314 assessed as inhibition of fungal growth incubated for 48 hrs by microdilution method

[2] = system: Pichia kudriavzevii; assay: microbe, parasite or virus in culture; assay type: functional, organism-based; conditions: Pichia kudriavzevii, 10153, 48 h
Description: Antifungal activity against Candida krusei 10153 assessed as inhibition of fungal growth incubated for 48 hrs by microdilution method

[3] = microbe, parasite or virus in culture; assay type: functional; conditions: Cryptococcus; time 72 hrs
Description: Anti-cryptococcal activity against Cryptococcus assessed as inhibition of fungal growth incubated for 72 hrs by microdilution method

[4] = system: Cryptococcus neoformans; assay: Inhibition of Cryptococcus neoformans H99 delta5,6-desaturase assessed as upregulation of ERG24 gene expression at 2 ug/ml incubated for 24 hrs by RT-PCR analysis; conditions: dose 2.0 µg/ml
[5] = system: [Candida] auris; assay: microbe, parasite or virus in culture; assay type: functional, organism-based; conditions: Candidozyma auris, 0029, 48 h
Description: Antifungal activity against Candida auris 0029 assessed as inhibition of fungal growth incubated for 48 hrs by microdilution method

[6] = system: Cryptococcus neoformans; assay: Inhibition of Cryptococcus neoformans H99 delta5,6-desaturase assessed as upregulation of ERG2 gene expression at 2 ug/ml incubated for 24 hrs by RT-PCR analysis; conditions: dose 2.0 µg/ml
[7] = system: Nakaseomyces glabratus; assay: microbe, parasite or virus in culture; assay type: functional, organism-based; conditions: Nakaseomyces glabratus, 9073, 48 h
Description: Antifungal activity against Candida glabrata 9073 assessed as inhibition of fungal growth incubated for 48 hrs by microdilution method

[8] = system: Nakaseomyces glabratus; assay: microbe, parasite or virus in culture; assay type: functional, organism-based; conditions: Nakaseomyces glabratus, 9025, 48 h
Description: Antifungal activity against Candida glabrata 9025 assessed as inhibition of fungal growth incubated for 48 hrs by microdilution method

[9] = system: Cryptococcus neoformans; assay: Inhibition of biofilm formation in Cryptococcus neoformans H99 at 8 ug/ml incubated for 24 hrs by XTT reduction assay; assay type: functional
[10] = system: Candida tropicalis; assay: microbe, parasite or virus in culture; assay type: functional, organism-based; conditions: Candida tropicalis, 10186, 48 h
Description: Antifungal activity against Candida tropicalis 10186 assessed as inhibition of fungal growth incubated for 48 hrs by microdilution method

[11] = system: Aspergillus fumigatus; assay: microbe, parasite or virus in culture; assay type: functional, organism-based; conditions: 023-2, 48 h
Description: Antifungal activity against Aspergillus fumigatus 023-2 assessed as inhibition of fungal growth incubated for 48 hrs by microdilution method

[12] = system: Cryptococcus neoformans; assay: Inhibition of Cryptococcus neoformans H99 delta5,6-desaturase assessed as upregulation of ERG3 gene expression at 2 ug/ml incubated for 24 hrs by RT-PCR analysis; conditions: dose 2.0 µg/ml
[13] = system: Cryptococcus neoformans; assay: Inhibition of Cryptococcus neoformans H99 delta5,6-desaturase assessed as upregulation of ERG4 gene expression at 2 ug/ml incubated for 24 hrs by RT-PCR analysis; conditions: dose 2.0 µg/ml
[14] = system: Cryptococcus neoformans; assay: Anti-cryptococcal activity against Cryptococcus neoformans H99 assessed as inhibition of fungal growth at 1 to 8 ug/ml incubated upto 72 hrs by time-growth curve assay; assay type: functional, organism-based; conditions: dose 1-8 µg/ml
[15] = system: [Candida] auris; assay: Antifungal activity against Candida auris 15448 assessed as inhibition of fungal growth incubated for 48 hrs by microdilution method; assay type: functional, organism-based; conditions: Candidozyma auris, 15448, 48 h
[16] = system: Cryptococcus neoformans; assay: Inhibition of Cryptococcus neoformans H99 delta5,6-desaturase assessed as upregulation of ERG5 gene expression at 2 ug/ml incubated for 24 hrs by RT-PCR analysis; conditions: dose 2.0 µg/ml
[17] = system: [Candida] auris; assay: microbe, parasite or virus in culture; assay type: functional, organism-based; conditions: Candidozyma auris, 0030, 48 h
Description: Antifungal activity against Candida auris 0030 assessed as inhibition of fungal growth incubated for 48 hrs by microdilution method

[18] = system: Aspergillus fumigatus; assay: microbe, parasite or virus in culture; assay type: functional, organism-based; conditions: Aspergillus fumigatus, 7544, 48 h
Description: Antifungal activity against Aspergillus fumigatus 7544 assessed as inhibition of fungal growth incubated for 48 hrs by microdilution method

[19] = system: Cryptococcus neoformans; assay: Inhibition of Cryptococcus neoformans H99 delta5,6-desaturase assessed as upregulation of ERG1 gene expression at 2 ug/ml incubated for 24 hrs by RT-PCR analysis; conditions: dose 2.0 µg/ml
[20] = system: Cryptococcus neoformans; assay: microbe, parasite or virus in culture; assay type: functional, organism-based; conditions: H99, 72 h
Description: Anti-cryptococcal activity against Cryptococcus neoformans H99 assessed as inhibition of fungal growth incubated for 72 hrs by microdilution method

[21] = system: Candida albicans; assay: microbe, parasite or virus in culture; assay type: functional, organism-based; conditions: Candida albicans, 904, 48 h
Description: Antifungal activity against Candida albicans 904 assessed as inhibition of fungal growth incubated for 48 hrs by microdilution method

[22] = system: Cryptococcus neoformans; assay: Inhibition of Cryptococcus neoformans H99 delta5,6-desaturase assessed as upregulation of ERG11 gene expression at 2 ug/ml incubated for 24 hrs by RT-PCR analysis; conditions: dose 2.0 µg/ml
[23] = system: Candida albicans; assay: microbe, parasite or virus in culture; assay type: functional, organism-based; conditions: Candida albicans, 0304103, 48 h
Description: Antifungal activity against Candida albicans 0304103 assessed as inhibition of fungal growth incubated for 48 hrs by microdilution method

[24] = Metabolic stability in mouse liver microsomes assessed as half life; assay type: ADME, Microsome
[25] = Metabolic stability in mouse liver microsomes assessed as clearance; assay type: ADME, Microsome
[26] = system: Cryptococcus neoformans; assay: Anti-cryptococcal activity against Cryptococcus neoformans H99 assessed as inhibition of fungal growth at 4 to 8 ug/ml measured for 3 to 48 hrs by time-growth curve assay; assay type: functional, organism-based; conditions: dose 4-8 µg/ml, time 3-48 hrs
[27] = system: Cryptococcus neoformans; assay: Inhibition of biofilm formation in Cryptococcus neoformans H99 at 2 ug/ml incubated for 24 hrs by XTT reduction assay; assay type: functional
[28] = system: Cryptococcus neoformans; assay: Inhibition of biofilm formation in Cryptococcus neoformans H99 at 0.5 to 8 ug/ml incubated for 24 hrs by XTT reduction assay; assay type: functional, organism-based; conditions: dose 0.5-8 µg/ml, DDE = dose-dependent effect

`OC(Cn1cncn1)(Cn1cncn1)c1ccc(F)cc1F` [FLUCONAZOLE] gave an IC50 [1] of 0.25 µg/mL (≈ 0.816 µM), an IC50 [2] of 64 µg/mL (≈ 209 µM) and an MIC50 [3] of 1.14 µg/mL (≈ 3.72 µM). For the same molecule, the Activity [4] was “Active”, the IC50 [5] was greater than 64 µg/mL and the Activity [6] was “Active”. It also gave an IC50 [7] of 64 µg/mL (≈ 209 µM), an IC50 [8] of 16 µg/mL (≈ 52.2 µM) and an inhibition at 8 µg/mL [9] of 50%. The IC50 [10] was greater than 64 µg/mL, the IC50 [11] was greater than 64 µg/mL and the Activity [12] was “Active”. For the same molecule, the Activity [13] was “Active”, the Activity [14] was “Active” and the IC50 [15] was 4 µg/mL (≈ 13.1 µM). The Activity [16] was “Active”, the IC50 [17] was greater than 64 µg/mL and the IC50 [18] was greater than 64 µg/mL. For the same molecule, the Activity [19] was “Active”, the IC50 [20] was 2 µg/mL (≈ 6.53 µM) and the IC50 [21] was greater than 64 µg/mL. The Activity [22] was “Active” and the IC50 [23] was greater than 64 µg/mL.
For `Cl.Clc1ccc(C2CCC(NCC3CCCCC3)c3ccsc32)cc1Cl` (centres undefined), the IC50 [20] was 2 µg/mL.
`Cl.Clc1ccc(C2CCC(NCc3ccncc3)c3ccsc32)cc1Cl` (centres undefined) gave an IC50 [20] of 16 µg/mL.
Work on `Cl.Clc1ccc(C2CCC(NC3CCCC3)c3ccsc32)cc1Cl` (centres undefined) yielded an IC50 [20] of 8 µg/mL.
Molecule `CNC1CC(c2ccc(Cl)c(Cl)c2)c2ccccc21.Cl` (centres undefined) has an IC50 [20] of 16 µg/mL.
For `CNC1CCC(c2ccc(Cl)c(Cl)c2)c2sccc21.Cl` (centres undefined), the IC50 [20] was 8 µg/mL.
Molecule `O=C(c1ccc(F)cc1)C1CCN(CCn2c(=O)[nH]c3ccccc3c2=O)CC1` [KETANSERIN] has a half-life [24] of 20.1 min and a CLH [25] of 271 µL/min/mg.
In the case of `Cl.Clc1ccc(C2CCC(NCc3ncccn3)c3ccsc32)cc1Cl` (centres undefined), the IC50 [20] is reported as 32 µg/mL.
`Nc1nc(=O)[nH]cc1F` [FLUCYTOSINE] showed an IC50 [20] of 2 µg/mL (≈ 15.5 µM).
With `Cl.Clc1ccc(C2CCC(NCCCC3CCCCC3)c3ccsc32)cc1Cl` (centres undefined) the IC50 [20] was 2 µg/mL.
Work on `Cl.Clc1ccc(C2CCC(NC3CCOCC3)c3ccsc32)cc1Cl` (centres undefined) yielded an IC50 [20] of 4 µg/mL.
`Cl.Clc1ccc(C2CCC(NCCC3CCCCC3)c3ccsc32)c(Cl)c1` (centres undefined) gave an IC50 [20] of 4 µg/mL.
For `Cl.Clc1ccc(C2CCC(NCCC3CCCCC3)c3ccsc32)cc1Cl` (centres undefined), the Activity [26] was “Active”, the inhibition at 2 µg/mL [27] was 50% and the IC50 [20] was 1 µg/mL. For the same molecule, the inhibition [28] was “Dde”.
